In patent US6335323B1, “Compositions for the treatment of peripheral neuropathies containing antidepressants and/or monoamine oxidase inhibitors and/or vitamin B12 and/or precursors or inducers of a neurotransmitter” (The WWK Trust, priority 1996, dated 2002):

Key:
[1] = tested on: vitamin B12 neuropathy and mild alcoholic neuropathy; experiment: Clinical case report, vitamin B12 neuropathy and mild alcoholic neuropathy (Case #4); type: in vivo, human; conditions: result in words
Text: A person with vitamin B12 neuropathy and mild alcoholic neuropathy was studied. Clinical progress with vitamin B12 injections alone was insignificant. […] Previously they required the assistance of another person to walk.

[2] = tested on: neuropathy related to HIV; experiment: Clinical case report, HIV related peripheral neuropathy (Case #9); type: in vivo, human; conditions: result in words
Method: A person was HIV positive and complained of moderate peripheral neuropathy including painful neuropathy. They also had mild diabetes of short duration but clinically their neuropathy was diagnosed as that related to HIV. […] They were additionally commenced on L-phenylalanine 500 mg twice daily, whereafter they reported an approximate further 50% improvement in the symptoms of their painful neuropathy.

[3] = tested on: diabetic neuropathy; experiment: Clinical case reports of patients with diabetic neuropathy; type: in vivo, human; conditions: single patient case reports; result in words
Text: The onset of neuropathy was thought to be due to poor control of diabetes. Neuropathic symptoms increased in severity over several years with development of severe diabetic neuropathy including diabetic amyotrophy, painful neuropathy with spasm, diabetic autonomic neuropathy and decreased sensation in the extremities, with numbing and loss of vibration sense. Electromyography confirmed the diagnosis of diabetic neuropathy.
A person with non-insulin dependent diabetes with very severe diabetic neuropathy, including diabetic amyotrophy and bedbound, resistant to current therapies, was commenced on vitamin B12 injections (1 mg at two-week intervals) and L-phenylalanine (as a metabolite of aspartame) 500 mg twice a day.
This case studied here is of the same person with diabetic neuropathy as in case #1, but after the original observation in case #1. The patient was subsequently continued on the same vitamin B12 injections and phenylalanine (500 mg twice daily) only.
A person with non-insulin dependent diabetes for 15 years with reasonable control, developed peripheral painful diabetic neuropathy of two months duration. […]
A person had severe diabetic peripheral neuropathy and resultant Charcot foot joints. […] Vibration sense initially could not be detected at a level below the knee.

[4] = tested on: diabetic neuropathy; conditions: cited from earlier work; for effectiveness against diabetic neuropathy symptoms: prior art statement

Row | Compound | clinical response of diabetic neuropathy signs and symptoms [3] | effectiveness against diabetic neuropathy symptoms [4] | further results
1 | vitamin B12 | – | – | clinical progress [1]: insignificant
2 | CN(C)CCC=C1c2ccccc2CCc2ccccc21 [amitriptyline] | – | – | clinical effect on neuropathy [2]: some mild beneficial effects
3 | NC(=O)N1c2ccccc2C=Cc2ccccc21 [carbemazepine] | ineffective | only to be mildly effective | –
4 | Cc1cccc(C)c1OCC(C)N (centres unmarked) [mexilitene] | – | only to be mildly effective | –
5 | CCCCC/C=C\C/C=C\C/C=C\CCCCC(=O)O [gamolenic acid] | – | may reduce symptoms | progression of abnormalities in nerve conduction studies ([4]; recent clinical trials): prevent the progression
6 | CN(C)CC/C=C1\c2ccccc2CSc2ccccc21 [dothiepin] | mild beneficial effect | – | –
